Earlier results as cited in patent US12721834B2, “Combination treatment for Netherton syndrome” (Quoin Pharmaceuticals Inc., priority 2023, dated 2026).

Conditions: in vivo

Row | Substance | dermal toxicity
1 | Poly(vinylpyrrolidone/1-hexadecene) [PVPH] | no demonstrable dermal toxicity
2 | Poly(vinylpyrrolidone/1-eicosene) [PVPE] | no demonstrable dermal toxicity
